The values that follow come from US11052092B2, “N-{[2-(piperidin-1-yl)phenyl](phenyl)methyl}-2-(3-oxo-3,4-dihydro-2H-1,4-benzoxazin-7-yl)acetamide derivatives and related compounds as ROR-gamma modulators for treating autoimmune diseases” (Genfit, priority 2017, dated 2021).

Counter-ions that a name gives are not always drawn.

A word on the melting point: it is the temperature, or range, at which the solid turns liquid. As a reminder, the IC50 is the concentration needed to halve the response being measured.

Tested on in one data set: not given
Test: not given
Details: not given
`Cc1ccc(C(NC(=O)Cc2ccc3c(c2)CC(=O)N3C)c2ccc(C)o2)c(N2CCCCC2)c1` (stereo not drawn) (as salt: HCl) [Cpd. 38, N-{[4-methyl-2-(piperidin-1-yl)phenyl](5-methylfuran-2-yl)methyl}-2-(1-methyl-2-oxo-2,3-dihydro-1H-indol-5-yl)acetamide] came in with a melting point of 215 °C.

The next data set addresses T1, human RORγt (Homo sapiens, UniProt P51449).
T1 construct: the full-length cDNA of human RORγt; expressed in transfected cells; host or cells: COS-7 (monkey kidney)
T1 sequence (P51449 1-497 isoform P51449-2): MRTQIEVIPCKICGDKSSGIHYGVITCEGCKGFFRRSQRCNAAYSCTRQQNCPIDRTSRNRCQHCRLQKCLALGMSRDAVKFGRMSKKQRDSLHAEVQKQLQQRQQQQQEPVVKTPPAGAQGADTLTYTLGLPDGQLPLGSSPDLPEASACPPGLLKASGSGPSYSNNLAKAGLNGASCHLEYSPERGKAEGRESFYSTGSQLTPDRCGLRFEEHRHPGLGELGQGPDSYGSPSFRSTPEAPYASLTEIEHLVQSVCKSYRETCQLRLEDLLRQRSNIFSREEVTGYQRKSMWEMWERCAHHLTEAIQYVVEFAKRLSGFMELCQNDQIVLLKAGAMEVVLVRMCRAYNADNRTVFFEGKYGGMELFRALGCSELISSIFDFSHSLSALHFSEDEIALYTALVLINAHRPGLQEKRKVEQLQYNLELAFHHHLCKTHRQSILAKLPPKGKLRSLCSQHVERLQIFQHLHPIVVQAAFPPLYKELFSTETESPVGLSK
In words: RORE Luciferase/RORγt transactivation assay. Format: cell-based. As to conditions: COS-7 cells transfected with human IL-17 promoter luciferase reporter and RORγt plasmid; 20 h with compound; read-out: IC50, RORγt activity inhibition. As for the experimental part:
It is well known that RORγ binds to a conserved non-coding sequence (CNS) enhancer element in the IL-17 promoter.
Culture medium was changed every 2 days.
The 4.3 Kb human IL-17 promoter containing the RORγ-specific CNS enhancer element was PCR amplified from human genomic DNA and cloned into a pGL3-TKLuc2Cp reporter plasmid.
The luciferase reporter plasmid and the RORγt overexpression plasmid were transfected into COS-7 cell line using 4 μLJetPEI™/μg of DNA. Briefly, 150 ng of DNA (ration ½ between RORE-Tk Luc2Cp and cDNA RORγt or the empty vector for the negative control) was served to transfect adherent COS-7 cells in a […] culture flask, in complete medium (see cos-7 cell line culture).
Cells were then detached (using trypsin) and washed by centrifugation at 300 g for 10 minutes. Cell pellet was resuspended in serum free/phenol red free DMEM and seeded in 384 well plates at a density of 10000 cells/well and then incubated for 4 h at 37° C.
Compounds were dissolved in 100% DMSO to obtain 10 mM stock solutions. For each compound, test concentrations were diluted in serum free/phenol red free DMEM using the Genesis Freedom 200™ (TECAN) and added to the cells to obtain a 0.3% DMSO final concentration (in a final volume of 40 μL per well).
The luciferase activity was then measured with 40 μL/well steady-Glo Luciferase assay system (Promega, Madison, Wis.) and after incubation at room temperature for 30 minutes. The luminescence was estimated using the Ultra384 reader (TECAN). Data were collected and analyzed using GraphPad Prism software (GraphPad Software V5.02, San Diego Calif. USA). IC50 in μM and Emax in % were reported for each compound.
(Reporter assays use an easily measured gene product as a stand-in for the process of interest.)
Turning to `Cc1ccc(C(NC(=O)C2(c3ccc4c(ccn4CCC(=O)O)c3)CC2)c2ccc(C)o2)c(C)c1` (stereo not drawn) [Cpd. 152, 3-[5-(1-{[(2,4-dimethylphenyl)(5-methylfuran-2-yl)methyl]carbamoyl}cyclopropyl)-1H-indol-1-yl]propanoic acid], the IC50 was 10 to 100 nM.

`Cc1cnc(C(NC(=O)C2(c3ccc4c(c3)OCS(=O)(=O)N4)CC2)c2ccc(C)o2)c(C)c1` (stereo not drawn) [Cpd. 153, N-[(3,5-dimethylpyridin-2-yl)(5-methylfuran-2-yl)methyl]-1-(2,2-dioxo-1,3-dihydro-4,2,1-benzoxathiazin-6-yl)cyclopropane-1-carboxamide]: the half-maximal inhibitory concentration (IC50) was 100 to 1000 nM.

`Cc1ccc(C(NC(=O)C2(c3ccc4c(ccn4CCC(=O)O)c3)CC2)c2ccc(C)o2)c(N2CCCCC2)c1` (stereo not drawn) [Cpd. 154, 3-{5-[1-({[4-methyl-2-(piperidin-1-yl)phenyl](5-methylfuran-2-yl)methyl}carbamoyl)cyclopropyl]-1H-indol-1-yl}propanoic acid]: the IC50 was < 10 nM.

Consider `Cc1ccc(C(NC(=O)C2(c3ccc4c(c3)CCC4O)CC2)c2ccc(C)o2)c(C)c1` (stereo not drawn) [Cpd. 155, N-[(2,4-dimethylphenyl)(5-methylfuran-2-yl)methyl]-1-(1-hydroxy-2,3-dihydro-1H-inden-5-yl)cyclopropane-1-carboxamide], for which the half-inhibitory concentration (IC50) lay within 10 to 100 nM.

Regarding `Cc1ccc(C(NC(=O)C2(c3ccc4c(c3)OCC(=O)N4)CC2)c2ccc(C)o2)c(N(C)C)c1` (stereo not drawn) [Cpd. 156, N-{[2-(dimethylamino)-4-methylphenyl](5-methylfuran-2-yl)methyl}-1-(3-oxo-3,4-dihydro-2H-1,4-benzoxazin-7-yl)cyclopropane-1-carboxamide], the IC50 is 10 to 100 nM.

Turning to `Cc1ccc(C(NC(=O)C2(c3ccc4c(c3)CS(=O)(=O)N4CC3CCOCC3)CC2)c2ccc(C)o2)c(C)c1` (stereo not drawn) [Cpd. 157, N-[(2,4-dimethylphenyl)(5-methylfuran-2-yl)methyl]-1-[1-(oxan-4-ylmethyl)-2,2-dioxo-1,3-dihydro-2,1-benzothiazol-5-yl]cyclopropane-1-carboxamide], the IC50 is < 10 nM.

Regarding `Cc1ccc(C(NC(=O)C2(c3cc(F)c4c(c3)CC(=O)N4)CC2)c2ccc(C)o2)c(C)c1` (stereo not drawn) [Cpd. 158, N-[(2,4-dimethylphenyl)(5-methylfuran-2-yl)methyl]-1-(7-fluoro-2-oxo-2,3-dihydro-1H-indol-5-yl)cyclopropane-1-carboxamide], the IC50 lay in the range of 10 to 100 nM.

For `Cc1ccc(C(NC(=O)C2(c3ccc4c(c3)C(F)(F)C(=O)N4)CC2)c2ccc(C)o2)c(C)c1` (stereo not drawn) [Cpd. 159, 1-(3,3-difluoro-2-oxo-2,3-dihydro-1H-indol-5-yl)-N-[(2,4-dimethylphenyl)(5-methylfuran-2-yl)methyl]cyclopropane-1-carboxamide], the concentration for half-maximal inhibition (IC50) was in the range of 100 to 1000 nM.

Turning to `Cc1ccc(C(NC(=O)C2(c3ccc4c(c3)CS(=O)(=O)N4C)CC2)c2ccc(Cl)o2)c(C)c1` (stereo not drawn) [Cpd. 160, N-[(5-chlorofuran-2-yl)(2,4-dimethylphenyl)methyl]-1-(1-methyl-2,2-dioxo-1,3-dihydro-2,1-benzothiazol-5-yl)cyclopropane-1-carboxamide], the IC50 lay in the range of 10 to 100 nM.

As for `Cc1ccc(C(NC(=O)C2(c3ccc4c(c3)OCO4)CC2)c2ccc(C)o2)c(Br)c1` (stereo not drawn) [Cpd. 161, 1-(2H-1,3-benzodioxol-5-yl)-N-[(2-bromo-4-methylphenyl)(5-methylfuran-2-yl)methyl]cyclopropane-1-carboxamide], the IC50 is 100 to 1000 nM.

`Cc1ccc(C(NC(=O)C2(c3ccc4c(c3)CS(=O)(=O)N4CC3CCOCC3)CC2)c2ccc(C)o2)c(N2CCCCC2)c1` (stereo not drawn) [Cpd. 162, N-{[4-methyl-2-(piperidin-1-yl)phenyl](5-methylfuran-2-yl)methyl}-1-[1-(oxan-4-ylmethyl)-2,2-dioxo-1,3-dihydro-2,1-benzothiazol-5-yl]cyclopropane-1-carboxamide]: the half-inhibitory concentration (IC50) was in the range of 10 to 100 nM.

Take `Cc1ccc(C(NC(=O)C2(c3ccc4c(c3)CS(=O)(=O)N4CC3CCOCC3)CC2)c2ccc(C)o2)c(Br)c1` (stereo not drawn) [Cpd. 163, N-[(2-bromo-4-methylphenyl)(5-methylfuran-2-yl)methyl]-1-[1-(oxan-4-ylmethyl)-2,2-dioxo-1,3-dihydro-2,1-benzothiazol-5-yl]cyclopropane-1-carboxamide]: the 50% inhibitory concentration (IC50) lay within 10 to 100 nM.

In the case of `Cc1ccc(C(NC(=O)C2(c3ccc4c(c3)OCO4)CC2)c2ccc(C)o2)c(N2CCCCC2)c1` (stereo not drawn) [Cpd. 164, 1-(2H-1,3-benzodioxol-5-yl)-N-{[4-methyl-2-(piperidin-1-yl)phenyl](5-methylfuran-2-yl)methyl}cyclopropane-1-carboxamide], the IC50 is 100 to 1000 nM.

Take `Cc1ccc(C(NC(=O)C2(c3ccc4c(c3)CCC4=NO)CC2)c2ccc(C)o2)c(C)c1` (stereo not drawn) [Cpd. 165, N-[(2,4-dimethylphenyl)(5-methylfuran-2-yl)methyl]-1-[1-(hydroxyimino)-2,3-dihydro-1H-inden-5-yl]cyclopropane-1-carboxamide]: the IC50 lay in the range of 10 to 100 nM.

As for `Cc1ccc(C(NC(=O)Cc2ccc3c(c2)CS(=O)(=O)N3CC2CCOCC2)c2ccc(C)o2)c(C)c1` (stereo not drawn) [Cpd. 166, N-[(2,4-dimethylphenyl)(5-methylfuran-2-yl)methyl]-2-[1-(oxan-4-ylmethyl)-2,2-dioxo-1,3-dihydro-2,1-benzothiazol-5-yl]acetamide], the IC50 lay within 10 to 100 nM.

`Cc1ccc(C(NC(=O)Cc2ccc3c(c2)CS(=O)(=O)N3CC2CCOCC2)c2ccc(C)o2)c(N2CCCCC2)c1` (stereo not drawn) [Cpd. 167, N-{[4-methyl-2-(piperidin-1-yl)phenyl](5-methylfuran-2-yl)methyl}-2-[1-(oxan-4-ylmethyl)-2,2-dioxo-1,3-dihydro-2,1-benzothiazol-5-yl]acetamide]: the IC50 is 10 to 100 nM.

With `Cc1ccc(C(NC(=O)C2(c3ccc4c(c3)OC(C)(C)OC4)CC2)c2ccc(C)o2)c(C)c1` (stereo not drawn) [Cpd. 168, 1-(2,2-dimethyl-2,4-dihydro-1,3-benzodioxin-7-yl)-N-[(2,4-dimethylphenyl)(5-methylfuran-2-yl)methyl]cyclopropane-1-carboxamide], the half-inhibitory concentration (IC50) was in the range of 100 to 1000 nM.

Consider `Cc1ccc(C(NC(=O)C2(c3ccc4c(c3)COC(C)(C)O4)CC2)c2ccc(C)o2)c(C)c1` (stereo not drawn) [Cpd. 169, 1-(2,2-dimethyl-2,4-dihydro-1,3-benzodioxin-6-yl)-N-[(2,4-dimethylphenyl)(5-methylfuran-2-yl)methyl]cyclopropane-1-carboxamide], for which the half-maximal inhibitory concentration (IC50) is 100 to 1000 nM.

Consider `Cc1ccc(C(NC(=O)C2(c3ccc4[nH]cc(C(C)(C)CO)c4c3)CC2)c2ccc(C)o2)c(C)c1` (stereo not drawn) [Cpd. 170, N-[(2,4-dimethylphenyl)(5-methylfuran-2-yl)methyl]-1-[3-(1-hydroxy-2-methylpropan-2-yl)-1H-indol-5-yl]cyclopropane-1-carboxamide], for which the IC50 was in the range of 10 to 100 nM.

In the case of `Cc1ccc(C(NC(=O)C2(c3ccc4c(c3)OCS(=O)(=O)N4)CC2)c2ccc(C)o2)c(C(F)(F)F)c1` (stereo not drawn) [Cpd. 171, 1-(2,2-dioxo-1,3-dihydro-4,2,1-benzoxathiazin-6-yl)-N-{[4-methyl-2-(trifluoromethyl)phenyl](5-methylfuran-2-yl)methyl}cyclopropane-1-carboxamide], the IC50 was in the range of 10 to 100 nM.
